The values that follow come from patent publication US11484575B2, “Compositions and methods comprising bone morphogenetic protein and NEMO binding peptide” (Cedars-Sinai Medical Center, priority 2018, dated 2022).

One data set relates to NFκB. The note with it: without affecting the basal activity of IKK; cited from earlier work.
The test system of another data set is rat spine fusion model. Kind of data set: Manual palpation fusion, rat posterolateral spine fusion model. The data set is classed as in vivo, Sprague Dawley rats. The settings on record: freshly harvested spine explants, 12 weeks. On the procedure:
Sixteen male adult (220 to 260 g) Sprague Dawley rats were utilized to compare BMP-2 mediated spine fusion in presence and absence of NBD. […] Therefore, this concentration of BMP-2 was employed. In detail, eight rats underwent single-level posterolateral fusion in the lumber spine using BMP-2 (total dose of 30 μg/side/rat) and NBD ([…]) loaded ACS and eight rats served as positive controls (30 μg/side/rat BMP-2-loaded ACS, no NBD). Rat spines were allowed to heal and consolidate for 12 weeks. Radiographical fusion was determined via high-resolution radiographs obtained at monthly intervals postoperatively. After 12 weeks, ex vivo micro-computed tomography was performed on explanted spines to determine the structural properties of the fusion mass. For functional assessment of spinal fusion, manual palpation was performed. Finally, histological evaluation of spine fusion was performed in terms of Masson-trichrome staining (Table 1). The posterolateral intertransverse process fusion surgical procedure is described briefly. […] The condition of the rats was monitored daily. […] Fusion was determined via manual palpation of segments by two independent observers. Any motion that was detected between the L4 and L5 segment, including the transverse process or vertebral bodies, was considered to indicate a fusion failure. […]

The test system of data set [1] is carrageenan-induced edema. The note with it: cited from earlier work.
Data set [2] concerns inflammatory bone destruction. The note with it: cited from earlier work.
The conditions of data set [3]: phase I clinical trial in dogs; cited from earlier work.

“TALDWSWLQTE (listed as Homo sapiens) [NBD]”: the “pro-inflammatory cytokine-induced NFκB activation” value in the data set with NFκB was “block”. For the same sequence, the “fusion by manual palpation” value in the data set with rat spine fusion model is on record as 100%. Also, in data set [1] (100 μg and 500 μg NBD), the “paw edema in mice” value is reported as “ameliorate”. In data set [1] (mouse, in vivo), the “carrageenan-induced edema formation and cellular inflammation in mouse paws” value is listed as “significantly inhibit”. Besides, the “inflammatory bone destruction in vivo” value in data set [2] (continuous administration) was “prevent”. The signs of toxicity result in data set [2] (in vivo) is recorded as “without showing signs of toxicity”. Moreover, the toxicity entry in data set [3] is listed as “low toxicity”.
